Test results from ChEMBL document CHEMBL5046296 (J Med Chem, 2022).

What was measured:
[1] = target: T1, AP2-associated protein kinase 1 (Homo sapiens, UniProt Q2M2I8); test: Inhibition of GST-Xa tagged human AAK1 (30 to 330 residues) expresssed in bacteria using (5-FAM)-Aha-KEEQSQITSQVTGQIGWR-NH2 peptide as substrate incubated for 3 hrs in presence of ATP by electrophoretic analysis
[2] = target: Cytochrome P450 (Homo sapiens, UniProt P04798+P05177+P05181+P08684+P10632+P10635+P11509+P11712+P13584+P20813+P20815+P20853+P24462+P24903+P33260+P33261+P51589+P78329+P98187+Q02928+Q08477+Q16678+Q16696+Q5TCH4+Q6VVX0+Q7Z449+Q8TAV3+Q96SQ9+Q9HB55); test: Metabolic stability in human liver microsomes assessed as CYP450-mediated metabolism by measuring parent compound remaining at 0.5 uM incubated for 10 mins in presence of NADPH by LC-MS/MS analysis; type: ADME; conditions: read-out: Stability
[3] = Metabolic stability in rat liver microsomes assessed as CYP450-mediated metabolism by measuring parent compound remaining at 0.5 uM incubated for 10 mins in presence of NADPH by LC-MS/MS analysis; type: ADME; conditions: read-out: Stability
[4] = Metabolic stability in mouse liver microsomes assessed as CYP450-mediated metabolism by measuring parent compound remaining at 0.5 uM incubated for 10 mins in presence of NADPH by LC-MS/MS analysis; type: ADME; conditions: read-out: Stability
[5] = system: Aorta; test: Cardiotoxicity in rat aortic ring assessed as relaxation of phenylephrine induced aortic ring contraction at 10 uM incubated for 1 hr; type: toxicity, tissue-based; design: scale not given: the % may be the effect or the level left
[6] = Displacement of 3H-LP-927443 from AAK1 in mouse brain membrane homogenate assessed as inhibition constant at 1 uM incubated for 1 hr by liquid scintillation counter analysis; type: cell membranes
[7] = target: T1, AP2-associated protein kinase 1; test: Inhibition of […] in HEK293F cells assessed as reduction in phospho mu2 formation incubated for 3 hrs by Western blot analysis; type: cell-based
[8] = target: Cytochrome P450 3A4 (Homo sapiens, UniProt P08684); test: Inhibition of CYP3A4 (unknown origin) using BFC as substrate; type: ADME
[9] = Protein binding in human plasma assessed as unbound fraction at 10 uM measured after 5 hrs by LC-MS/MS analysis; type: ADME, cell-free
[10] = Protein binding in rat plasma assessed as unbound fraction at 10 uM measured after 5 hrs by LC-MS/MS analysis; type: ADME, cell-free
[11] = Protein binding in mouse plasma assessed as unbound fraction at 10 uM measured after 5 hrs by LC-MS/MS analysis; type: ADME, cell-free
[12] = Permeability of compound at pH 5.5 measured after 4 hrs by PAMPA assay; type: ADME; conditions: read-out: permeability
[13] = Permeability of compound at pH 7.4 measured after 4 hrs by PAMPA assay; type: ADME; conditions: read-out: permeability
[14] = Permeability across apical to basolateral side in human Caco-2 cells at 3 uM measured after 2 hrs by LC-MS/MS analysis; type: ADME, cell-based; conditions: read-out: permeability
[15] = Permeability across basolateral to apical side in human Caco-2 cells at 3 uM measured after 2 hrs by LC-MS/MS analysis; type: ADME, cell-based; conditions: read-out: permeability
[16] = Inhibition of PCKA (unknown origin); design: species or system Homo sapiens
[17] = target: BMP-2-inducible protein kinase (Homo sapiens, UniProt Q9NSY1); test: Inhibition of BIKE (unknown origin)
[18] = target: Cyclin-G-associated kinase (Homo sapiens, UniProt O14976); test: Inhibition of GAK (unknown origin)
[19] = target: Citron Rho-interacting kinase (Homo sapiens, UniProt O14578); test: Inhibition of CRIK (unknown origin)
[20] = target: MAP kinase-interacting serine/threonine-protein kinase 1 (Homo sapiens, UniProt Q9BUB5); test: Inhibition of MNK1 (unknown origin)
[21] = target: cGMP-dependent protein kinase 2 (Homo sapiens, UniProt Q13237); test: Inhibition of PKG2 (unknown origin)
[22] = target: Serine/threonine-protein kinase N2 (Homo sapiens, UniProt Q16513); test: Inhibition of PRK2 (unknown origin)
[23] = target: Rho-associated protein kinase 2 (Homo sapiens, UniProt O75116); test: Inhibition of ROCK2 (unknown origin)
[24] = system: Rattus norvegicus; test: Analgesic activity in streptozotocin induced diabetic peripheral neuropathic mechanical allodynia in overnight fasted Sprague-Dawley rat model assessed as reduction in pain response at 1 mg/kg, po measured after 5.5 hrs post treatment; type: functional; design: scale not given: the % may be the effect or the level left
[25] = Cmax in plasma of overnight fasted Sprague-Dawley rat model of streptozotocin induced diabetic peripheral neuropathic mechanical allodynia at 1 mg/kg, po measured after 5.5 hrs; type: ADME, organism-based; design: route oral, time 5.5 hrs, dose 1 mg/kg
[26] = Drug concentration in brain of overnight fasted Sprague-Dawley rat model of streptozotocin induced diabetic peripheral neuropathic mechanical allodynia at 1 mg/kg, po measured after 5.5 hrs; type: ADME, organism-based; conditions: read-out: Ct
[27] = Drug concentration in streptozotocin induced diabetic peripheral neuropathic mechanical allodynia in overnight fasted Sprague-Dawley rat spinal cord at 1 mg/kg, po measured after 5.5 hrs; type: ADME, organism-based; conditions: read-out: Ct
[28] = Ratio of drug concentration in brain to plasma in streptozotocin induced diabetic peripheral neuropathic mechanical allodynia in overnight fasted Sprague-Dawley rat at 1 mg/kg, po measured after 5.5 hrs; type: ADME, organism-based
[29] = target: MAP kinase-interacting serine/threonine-protein kinase 2 (Homo sapiens, UniProt Q9HBH9); test: Inhibition of MNK2 (unknown origin)
[30] = target: Glycogen synthase kinase-3 alpha (Homo sapiens, UniProt P49840); test: Inhibition of GSK3A (unknown origin)
Chain of Glycogen synthase kinase-3 alpha (P49840 whole entry): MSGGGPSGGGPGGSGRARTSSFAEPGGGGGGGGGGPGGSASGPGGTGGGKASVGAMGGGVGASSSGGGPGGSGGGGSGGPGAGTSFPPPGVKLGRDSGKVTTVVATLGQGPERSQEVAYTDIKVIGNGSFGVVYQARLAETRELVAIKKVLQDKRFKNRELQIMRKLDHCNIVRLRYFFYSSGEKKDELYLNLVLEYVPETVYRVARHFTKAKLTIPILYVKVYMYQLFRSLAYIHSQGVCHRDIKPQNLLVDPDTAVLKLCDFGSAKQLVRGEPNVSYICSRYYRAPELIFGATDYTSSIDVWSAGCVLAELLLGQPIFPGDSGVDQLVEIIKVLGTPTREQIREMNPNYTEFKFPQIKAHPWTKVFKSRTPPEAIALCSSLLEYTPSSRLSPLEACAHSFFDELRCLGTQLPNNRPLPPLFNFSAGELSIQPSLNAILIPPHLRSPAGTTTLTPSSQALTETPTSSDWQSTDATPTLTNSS

T1 sequence (Q2M2I8 whole entry, the tested form may be a part): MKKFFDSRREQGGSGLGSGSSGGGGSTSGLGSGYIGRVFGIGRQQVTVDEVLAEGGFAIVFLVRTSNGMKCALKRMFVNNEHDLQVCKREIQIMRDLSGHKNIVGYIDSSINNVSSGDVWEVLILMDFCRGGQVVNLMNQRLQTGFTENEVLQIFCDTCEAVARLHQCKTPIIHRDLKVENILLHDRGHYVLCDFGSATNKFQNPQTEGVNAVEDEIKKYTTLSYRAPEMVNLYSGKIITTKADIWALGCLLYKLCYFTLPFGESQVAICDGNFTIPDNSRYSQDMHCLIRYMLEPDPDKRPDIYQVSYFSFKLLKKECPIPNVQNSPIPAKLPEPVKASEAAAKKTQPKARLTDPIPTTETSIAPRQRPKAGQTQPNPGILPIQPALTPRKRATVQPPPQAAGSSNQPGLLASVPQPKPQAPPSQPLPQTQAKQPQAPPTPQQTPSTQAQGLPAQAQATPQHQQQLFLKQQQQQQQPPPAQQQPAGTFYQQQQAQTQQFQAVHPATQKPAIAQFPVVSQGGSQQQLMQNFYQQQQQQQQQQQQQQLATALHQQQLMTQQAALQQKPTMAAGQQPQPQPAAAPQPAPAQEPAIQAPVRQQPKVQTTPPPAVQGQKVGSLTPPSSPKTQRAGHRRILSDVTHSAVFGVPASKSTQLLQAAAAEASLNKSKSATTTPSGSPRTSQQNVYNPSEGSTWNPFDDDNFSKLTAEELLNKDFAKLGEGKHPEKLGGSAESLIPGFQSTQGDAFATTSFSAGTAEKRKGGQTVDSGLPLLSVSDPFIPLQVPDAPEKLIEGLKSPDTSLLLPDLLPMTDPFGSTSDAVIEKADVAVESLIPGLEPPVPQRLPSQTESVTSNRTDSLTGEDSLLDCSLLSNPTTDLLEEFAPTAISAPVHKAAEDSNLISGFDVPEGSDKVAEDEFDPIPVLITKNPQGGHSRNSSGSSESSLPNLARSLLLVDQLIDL
Chain of Cytochrome P450 3A4 (P08684 whole entry): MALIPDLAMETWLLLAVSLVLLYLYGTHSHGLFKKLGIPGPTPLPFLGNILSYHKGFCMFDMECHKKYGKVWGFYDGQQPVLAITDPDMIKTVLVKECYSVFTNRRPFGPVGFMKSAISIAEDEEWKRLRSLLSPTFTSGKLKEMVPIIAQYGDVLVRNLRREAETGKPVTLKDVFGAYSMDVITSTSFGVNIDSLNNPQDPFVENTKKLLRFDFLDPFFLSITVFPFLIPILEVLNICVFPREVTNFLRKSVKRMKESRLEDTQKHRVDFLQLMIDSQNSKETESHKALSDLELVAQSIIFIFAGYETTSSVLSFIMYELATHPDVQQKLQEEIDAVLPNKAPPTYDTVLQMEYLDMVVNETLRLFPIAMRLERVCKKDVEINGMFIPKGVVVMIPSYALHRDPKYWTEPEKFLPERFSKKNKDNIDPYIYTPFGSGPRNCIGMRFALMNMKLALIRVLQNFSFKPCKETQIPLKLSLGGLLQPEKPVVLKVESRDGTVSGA
Chain of cGMP-dependent protein kinase 2 (Q13237 whole entry): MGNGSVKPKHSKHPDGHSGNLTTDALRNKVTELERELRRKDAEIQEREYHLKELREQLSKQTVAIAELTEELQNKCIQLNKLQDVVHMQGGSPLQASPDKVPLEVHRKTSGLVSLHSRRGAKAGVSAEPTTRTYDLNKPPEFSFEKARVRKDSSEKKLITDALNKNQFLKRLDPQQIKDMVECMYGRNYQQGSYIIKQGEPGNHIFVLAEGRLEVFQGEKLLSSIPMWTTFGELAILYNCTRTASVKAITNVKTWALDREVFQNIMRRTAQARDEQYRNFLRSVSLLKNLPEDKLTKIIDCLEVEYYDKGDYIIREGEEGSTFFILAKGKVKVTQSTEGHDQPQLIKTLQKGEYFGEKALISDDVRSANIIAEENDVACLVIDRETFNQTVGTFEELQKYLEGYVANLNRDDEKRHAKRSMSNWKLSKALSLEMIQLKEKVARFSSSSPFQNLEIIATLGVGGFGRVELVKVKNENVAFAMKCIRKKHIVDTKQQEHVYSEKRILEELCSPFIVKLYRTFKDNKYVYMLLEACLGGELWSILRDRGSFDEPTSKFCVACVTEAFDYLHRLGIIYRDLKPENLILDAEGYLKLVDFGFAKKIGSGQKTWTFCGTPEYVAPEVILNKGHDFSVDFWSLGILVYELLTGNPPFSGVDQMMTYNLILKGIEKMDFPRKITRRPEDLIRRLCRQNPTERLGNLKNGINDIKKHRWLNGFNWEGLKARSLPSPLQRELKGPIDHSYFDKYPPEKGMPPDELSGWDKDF
Chain of Rho-associated protein kinase 2 (O75116 whole entry): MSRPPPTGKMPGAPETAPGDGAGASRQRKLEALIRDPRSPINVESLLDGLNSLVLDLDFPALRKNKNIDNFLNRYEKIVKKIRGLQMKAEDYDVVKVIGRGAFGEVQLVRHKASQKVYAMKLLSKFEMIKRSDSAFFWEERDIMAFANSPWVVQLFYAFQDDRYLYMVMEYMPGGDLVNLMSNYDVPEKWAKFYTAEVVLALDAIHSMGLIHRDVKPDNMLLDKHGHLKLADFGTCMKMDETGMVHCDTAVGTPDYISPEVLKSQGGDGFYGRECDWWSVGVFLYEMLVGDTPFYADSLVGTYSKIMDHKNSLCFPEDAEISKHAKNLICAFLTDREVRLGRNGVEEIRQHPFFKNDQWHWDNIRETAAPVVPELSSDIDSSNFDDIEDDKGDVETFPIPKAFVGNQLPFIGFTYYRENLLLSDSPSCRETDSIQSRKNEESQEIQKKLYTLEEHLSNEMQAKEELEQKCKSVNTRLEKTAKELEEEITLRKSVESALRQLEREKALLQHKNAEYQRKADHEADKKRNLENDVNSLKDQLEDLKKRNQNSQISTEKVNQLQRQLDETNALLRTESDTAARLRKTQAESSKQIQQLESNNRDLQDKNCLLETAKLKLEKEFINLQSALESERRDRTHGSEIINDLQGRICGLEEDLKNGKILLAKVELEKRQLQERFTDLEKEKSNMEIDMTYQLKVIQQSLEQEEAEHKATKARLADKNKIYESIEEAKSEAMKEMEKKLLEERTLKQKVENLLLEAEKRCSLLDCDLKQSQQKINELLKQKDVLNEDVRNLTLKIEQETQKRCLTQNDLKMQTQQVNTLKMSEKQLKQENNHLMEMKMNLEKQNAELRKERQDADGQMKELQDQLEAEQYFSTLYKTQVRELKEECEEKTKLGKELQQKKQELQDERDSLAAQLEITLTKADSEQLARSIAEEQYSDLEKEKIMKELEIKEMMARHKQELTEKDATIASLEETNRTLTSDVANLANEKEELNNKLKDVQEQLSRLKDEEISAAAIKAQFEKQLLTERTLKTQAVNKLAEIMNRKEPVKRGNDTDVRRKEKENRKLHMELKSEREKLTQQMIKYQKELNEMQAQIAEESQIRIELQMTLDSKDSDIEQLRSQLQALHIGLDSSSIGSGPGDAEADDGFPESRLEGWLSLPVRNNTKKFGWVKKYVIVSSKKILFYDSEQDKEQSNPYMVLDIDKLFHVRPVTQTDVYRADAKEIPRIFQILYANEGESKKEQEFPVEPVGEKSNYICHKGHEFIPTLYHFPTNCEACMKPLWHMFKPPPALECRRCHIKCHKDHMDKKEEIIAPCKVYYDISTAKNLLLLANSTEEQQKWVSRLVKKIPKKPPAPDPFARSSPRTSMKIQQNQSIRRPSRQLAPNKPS
Chain of MAP kinase-interacting serine/threonine-protein kinase 1 (Q9BUB5 whole entry): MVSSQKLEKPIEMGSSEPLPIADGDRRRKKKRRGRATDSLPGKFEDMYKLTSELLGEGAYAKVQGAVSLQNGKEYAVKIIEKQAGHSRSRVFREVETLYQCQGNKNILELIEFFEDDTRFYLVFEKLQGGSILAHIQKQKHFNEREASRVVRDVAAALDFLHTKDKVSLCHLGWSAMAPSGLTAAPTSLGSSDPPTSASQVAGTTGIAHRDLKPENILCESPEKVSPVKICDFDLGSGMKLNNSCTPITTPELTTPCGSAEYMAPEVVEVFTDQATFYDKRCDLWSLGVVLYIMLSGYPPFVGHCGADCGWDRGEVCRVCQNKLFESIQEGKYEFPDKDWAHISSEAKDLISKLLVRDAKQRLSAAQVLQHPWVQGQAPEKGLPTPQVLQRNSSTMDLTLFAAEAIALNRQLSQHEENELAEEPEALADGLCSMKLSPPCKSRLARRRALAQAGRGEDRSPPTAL
Chain of MAP kinase-interacting serine/threonine-protein kinase 2 (Q9HBH9 whole entry): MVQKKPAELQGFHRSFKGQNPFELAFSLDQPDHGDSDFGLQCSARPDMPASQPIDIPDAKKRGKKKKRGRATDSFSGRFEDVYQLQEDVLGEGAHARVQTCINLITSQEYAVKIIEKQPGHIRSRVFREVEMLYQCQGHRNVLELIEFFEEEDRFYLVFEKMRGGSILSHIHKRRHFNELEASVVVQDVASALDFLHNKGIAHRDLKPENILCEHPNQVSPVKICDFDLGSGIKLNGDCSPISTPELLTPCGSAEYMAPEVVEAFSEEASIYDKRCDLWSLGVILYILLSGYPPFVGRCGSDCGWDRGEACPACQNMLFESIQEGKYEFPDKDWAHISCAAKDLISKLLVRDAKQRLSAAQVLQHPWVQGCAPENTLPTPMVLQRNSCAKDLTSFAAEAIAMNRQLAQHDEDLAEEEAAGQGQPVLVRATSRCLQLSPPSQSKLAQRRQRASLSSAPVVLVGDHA

CC(C)C[C@](C)(N)COc1ccc(-c2ccnc(Cl)c2)nc1C(F)F
IC50 [1]: 3.9 nM | remaining at 10 min, 0.5 µM [2]: 97% | remaining at 10 min, 0.5 µM [3]: 87% | remaining at 10 min, 0.5 µM [4]: 85% | Activity [5]: 59%

CC(C)C[C@](C)(N)COc1ccc(-c2ccnc(C(F)F)c2)cc1C#N
IC50 [1]: 0.6 nM | Ki [6]: 0.25 nM | IC50 [7]: 6.4 nM | IC50 [8]: > 20000 nM | remaining at 10 min, 0.5 µM [2]: 85% | remaining at 10 min, 0.5 µM [3]: 71% | remaining at 10 min, 0.5 µM [4]: 97% | fraction unbound at 5 h, 10 µM [9]: 0.14 | fraction unbound at 5 h, 10 µM [10]: 0.14 | fraction unbound at 5 h, 10 µM [11]: 0.079 | Papp at 4 h [12]: 68.1 ×10⁻⁶ cm/s | Papp at 4 h [13]: 68.7 ×10⁻⁶ cm/s | Papp A→B at 2 h, 3 µM [14]: 22.2 ×10⁻⁶ cm/s | Papp B→A at 2 h, 3 µM [15]: 17.7 ×10⁻⁶ cm/s | Activity [5]: 100%

Cc1cc(-c2ccc(OC[C@@](C)(N)CC(C)C)c(C)n2)ccn1
IC50 [1]: 36 nM | Ki [6]: 7.2 nM | remaining at 10 min, 0.5 µM [2]: 95% | remaining at 10 min, 0.5 µM [3]: 83% | remaining at 10 min, 0.5 µM [4]: 78% | Activity [5]: 1%

CC(C)C[C@H](N)COc1ccc(-c2ccncc2)cc1
IC50 [8]: 8700 nM

Cc1cc(-c2ccc(OC[C@@H](N)CC(C)C)c(C#N)c2)ccn1
IC50 [1]: 0.8 nM | Ki [6]: 0.71 nM | IC50 [7]: 89 nM | IC50 [8]: 2400 nM

CC(C)C[C@](C)(N)COc1ccc(-c2ccnc(C(F)F)c2)nc1Cl
Activity [5]: 64%

Cc1cc(-c2ccc(OC[C@@](C)(N)CC(C)C)c(C(F)F)n2)ccn1
IC50 [1]: 2.9 nM | Ki [6]: 1.1 nM | IC50 [7]: 11 nM | remaining at 10 min, 0.5 µM [2]: 81% | remaining at 10 min, 0.5 µM [3]: 82% | remaining at 10 min, 0.5 µM [4]: 71% | Activity [5]: 26%

Cc1cc(-c2cnc(OC[C@@](C)(N)CC(C)C)c(C(F)F)c2)ccn1
IC50 [1]: 1.9 nM | remaining at 10 min, 0.5 µM [2]: 43% | remaining at 10 min, 0.5 µM [3]: 65% | remaining at 10 min, 0.5 µM [4]: 43%

CC(C)C[C@](C)(N)COc1ccc(-c2ccnc(C(F)F)c2)cc1C(F)F
IC50 [16]: 580 nM | IC50 [1]: 0.4 nM | Ki [6]: 0.04 nM | IC50 [7]: 0.9 nM | IC50 [8]: 16000 nM | remaining at 10 min, 0.5 µM [2]: 96% | remaining at 10 min, 0.5 µM [3]: 83% | fraction unbound at 5 h, 10 µM [9]: 0.046 | fraction unbound at 5 h, 10 µM [10]: 0.045 | fraction unbound at 5 h, 10 µM [11]: 0.018 | Papp at 4 h [12]: 99.9 ×10⁻⁶ cm/s | Papp at 4 h [13]: 42.7 ×10⁻⁶ cm/s | Papp A→B at 2 h, 3 µM [14]: 10.8 ×10⁻⁶ cm/s | Papp B→A at 2 h, 3 µM [15]: 6.2 ×10⁻⁶ cm/s | Activity [5]: 84% | IC50 [17]: 280 nM | IC50 [18]: 73 nM | IC50 [19]: 56 nM | IC50 [20]: 180 nM | IC50 [21]: 420 nM | IC50 [22]: 440 nM | IC50 [23]: 420 nM

Cc1cc(-c2ccc(OC[C@@](C)(N)CC(C)C)c(C(F)(F)F)c2)ccn1
IC50 [1]: 0.9 nM | Ki [6]: 0.22 nM | IC50 [7]: 25 nM | IC50 [8]: > 20000 nM | remaining at 10 min, 0.5 µM [2]: 89% | remaining at 10 min, 0.5 µM [3]: 86% | remaining at 10 min, 0.5 µM [4]: 66% | fraction unbound at 5 h, 10 µM [9]: 0.02 | fraction unbound at 5 h, 10 µM [10]: 0.026 | fraction unbound at 5 h, 10 µM [11]: 0.017 | Papp at 4 h [12]: 36 ×10⁻⁶ cm/s | Papp at 4 h [13]: 30.5 ×10⁻⁶ cm/s | Papp A→B at 2 h, 3 µM [14]: 7.1 ×10⁻⁶ cm/s | Papp B→A at 2 h, 3 µM [15]: 5.9 ×10⁻⁶ cm/s | Activity [5]: 69%

CC(C)C[C@](C)(N)COc1ncc(-c2ccnc(C(F)F)c2)cc1C#N
Activity [5]: 50%

Cc1cc(-c2ccc(OC[C@@](C)(N)CC(C)C)c(C3CC3)c2)ccn1
IC50 [8]: > 20000 nM

CC(C)C[C@](C)(N)COc1ccc(-c2ccnc(C(F)F)c2)cc1C1CC1
IC50 [8]: > 20000 nM | Papp at 4 h [12]: 78.4 ×10⁻⁶ cm/s

Cc1cc(-c2ccc(OC[C@@](C)(N)CC(C)C)c(C(F)F)c2)ccn1
IC50 [1]: 0.4 nM | Ki [6]: 0.08 nM | IC50 [7]: 0.8 nM | IC50 [8]: > 20000 nM | remaining at 10 min, 0.5 µM [2]: 74% | remaining at 10 min, 0.5 µM [3]: 81% | remaining at 10 min, 0.5 µM [4]: 69% | fraction unbound at 5 h, 10 µM [9]: 0.037 | fraction unbound at 5 h, 10 µM [10]: 0.031 | fraction unbound at 5 h, 10 µM [11]: 0.02 | Papp at 4 h [12]: 69.7 ×10⁻⁶ cm/s | Papp at 4 h [13]: 31.9 ×10⁻⁶ cm/s | Papp A→B at 2 h, 3 µM [14]: 9.5 ×10⁻⁶ cm/s | Papp B→A at 2 h, 3 µM [15]: 6 ×10⁻⁶ cm/s | Activity [5]: 57%

Cc1cc(-c2cnc(OC[C@@](C)(N)CC(C)C)c(C#N)c2)ccn1
Activity [5]: 28%

COc1cc(-c2ccc(OC[C@@H](N)CC(C)C)c(C#N)c2)ccn1
IC50 [8]: 540 nM

CC(C)C[C@H](N)COc1ccc(-c2ccnc(C(F)(F)F)c2)cc1C#N
IC50 [8]: 1300 nM

CC(C)C[C@](C)(N)COc1ccc(-c2ccnc(C(F)F)c2)cc1C(F)(F)F
IC50 [1]: 0.6 nM | Ki [6]: 0.07 nM | IC50 [7]: 7.8 nM | IC50 [8]: 18000 nM | remaining at 10 min, 0.5 µM [2]: 94% | remaining at 10 min, 0.5 µM [3]: 92% | remaining at 10 min, 0.5 µM [4]: 98% | fraction unbound at 5 h, 10 µM [9]: 0.008 | fraction unbound at 5 h, 10 µM [10]: 0.004 | fraction unbound at 5 h, 10 µM [11]: 0.002 | Papp at 4 h [12]: 33.9 ×10⁻⁶ cm/s | Papp at 4 h [13]: 55 ×10⁻⁶ cm/s | Papp A→B at 2 h, 3 µM [14]: 3.3 ×10⁻⁶ cm/s | Papp B→A at 2 h, 3 µM [15]: 1.7 ×10⁻⁶ cm/s | Activity [24]: 30% | Cmax [25]: 80 nM | concentration at 5.5 h [26]: 880 nM | concentration at 5.5 h [27]: 510 nM | Kp at 5.5 h [28]: 11 | IC50 [29]: 380 nM | IC50 [30]: 1700 nM | IC50 [21]: 380 nM

CC(C)C[C@](C)(N)COc1ccc(-c2ccnc(F)c2)cc1C(F)(F)F
IC50 [8]: > 20000 nM

Cc1cc(-c2ccc(OC[C@@](C)(N)CC(C)C)c(C#N)c2)ccn1
IC50 [8]: > 20000 nM

CC(C)C[C@](C)(N)COc1ncc(-c2ccnc(Cl)c2)cc1C(F)F
IC50 [1]: 3.1 nM | IC50 [7]: 9.1 nM | remaining at 10 min, 0.5 µM [2]: 89% | remaining at 10 min, 0.5 µM [3]: 88% | remaining at 10 min, 0.5 µM [4]: 76%

CC(C)C[C@](C)(N)COc1ccc(-c2ccncc2)cc1C(F)(F)F
IC50 [1]: 0.6 nM | Ki [6]: 0.17 nM | IC50 [7]: 29 nM | IC50 [8]: 630 nM
